# Data from patent US20240285525A1, “METHODS AND MATERIALS FOR TREATING CANCER” (The Johns Hopkins University, priority 2021, published 2024).
# Key:
# [1] = tested on: GL261 cells; assay: Inhibition of endocytosis (nanotube uptake, flow cytometry); type: cell-based, mouse; details: inhibitor 30 min then nanotubes 3 hours, 30 μg/mL DMA, 500 μg/mL fucoidan, 10 μM LatB
# Protocol: 200,000 GL261 cells were plated per well in 12-well plates and incubated at 37° C. and 5% CO2 overnight. The following day, media was replaced with fresh media, and inhibitor stock solutions were diluted and delivered to the cells at targeted concentrations: 1.25 μg/mL cytochalasin D (CytD), 10 μM latrunculin B (LatB), 15 μg/mL nocodazole, 5 μg/mL fillipin, 2.5 μg/mL nystatin, 1.32 mg/mL methyl-β-cyclodextrin (MPCD), 2.5 μg/mL chlorpromazine (CPZ), 12.5 μg/mL dynasore, 0.2 μg/mL pertussis toxin (PTX), 2 μg/mL cholera toxin (CTX), 30 μg/mL 5-(N,N-dimethyl)-amiloride hydrochloride (DMA), and 500 μg/mL fucoidan. Cells with no inhibitor were used as positive controls. Plates were gently shaken by hand to ensure even distribution of inhibitors, and placed in the incubator for 30 minutes. […] Cells were washed twice with 1 mL PBS, trypsin-EDTA at 37° C. was added to each well, the contents of each well were individually mixed via up and down pipetting and transferred to 1.5 mL centrifuge tubes. Cells were washed twice with PBS, reconstituted in 500 μL PBS and transferred to flow cytometry tubes. 5 μL of 10 μg/mL propidium iodide (PI) solution was added to each tube and vortexed. The cells were run on a BD FACSCanto flow cytometer and were examined for PI and HEX fluorescence via excitation at 488 nm with a 585/42 filter. Cells were gated by PI staining to select for live cells, and by scattering (FSC-A and SSC-A) to select for single cells. To evaluate cytotoxicity of inhibitors, 10,000 GL261 cells were plated in 96-well plates and incubated overnight in a 37° C. 5% C02 incubator. The next day, media was replaced with fresh formulated media, and inhibitor stock solutions were diluted and delivered to the cells at concentrations mentioned above. Plates were gently shaken by hand and placed in the incubator for 3 hours. Cell viability was measured using CellTiter-Glo 2.0 assay (Promega, Madison, WI) following the manufacturer's protocol. Luminescence was recorded using a Synergy H1 microplate reader (Biotek, Winooski, VT), and cell viability was normalized to untreated cells.
# [2] = tested on: M2 macrophages from primary CD14+human monocytes; assay: Macrophage gene expression via RT-qPCR; type: cell-based; details: 1 μM TS free or in nanotubes, or empty nanotubes; compared to untreated M2-macrophages
# Protocol: Freshly isolated primary CD14+human monocytes were plated at a density of 500,000 cells/well in the presence of 50 ng/mL of M-CSF (macrophage colony stimulating factor) to differentiate them to MO-macrophages. The media were renewed with the same composition (DMEM+10% FBS+1% Penicillin-Streptomycin+50 ng/mL M-CSF) every 2-3 days until complete differentiation. The macrophages were treated with 20 ng/mL of IL-4 for 3 days differentiate them to an M2-phenotype.
# Cells were detached using 1× Tryp1E Express Enzyme (ThermoFisher Scientific) and washed with PBS. TRIzol (ThermoFisher Scientific) was added to the cells followed by absolute ethanol. mRNA was collected in Zymo-Spin IC columns (Zymo Research) by centrifuging the cell solution in the spin columns. The mRNA was washed and resuspend in RNAse and DNAse free water. After evaluating the mRNA concentration, the cDNA reaction mixture was prepared by adding the mRNA to nuclease-free water, iScript Reverse Transcriptase (Bio-Rad) and 5× iScript Reaction Mix. The cDNA reaction was performed using TurboCycler Lite Thermal Cycler (Blue-Ray Biotech). The cDNA was then aliquoted and added to a mixture of primers for the genes 1112b, 118, Nos2, 1110, Tgfb1 and Fizz1 respectively along with iTaq™ Universal SYBR® Green Supermix (Bio-Rad). […] Data was analysed using the ΔΔCt method. […]
# [3] = tested on: GL261 cells; assay: Cell viability (CellTiter-Glo 2.0); type: cell-based, mouse; details: 12 hours + 36 hours at 37° C.; NT 5-6.4 μM ssDNA-amphiphiles, DOX 5 μg/mL, NT-DOX same concentrations; normalized to untreated
# Protocol: The samples were incubated with cells for 12 hours at 37° C., followed by a single wash with PBS. 100 μL of fresh media was added, and cells were incubated at 37° C. for an additional 36 hours. […] The luminescence signal of each well was measured, and the luminescence of each group was normalized to the luminescence of the untreated cells.
# [4] = Histopathological analysis of organs (H&E); type: in vivo, mouse
# Source text: 8 week old mice were used for this study. […] The photon counts within each ROI were quantified.
# Following perfusion and fixation with 10% neutral buffered formalin, tissues were processed into paraffin blocks using standard histology techniques, sectioned at a thickness of […], stained with hematoxylin and eosin (H&E), and evaluated using light microscopy.
# [5] = tested on: GL261-Luc orthotopic tumor; assay: Intracranial delivery via CED in orthotopic GL261-Luc mouse model
molecule,measurement,setting,value
fucoidan,inhibition of cellular uptake of the nanotubes,[1],57%
"C=C(NC(=O)C(=C)NC(=O)c1csc(C2=N[C@@H]3c4csc(n4)[C@H]4NC(=O)c5csc(n5)[C@H]([C@](C)(O)[C@@H](C)O)NC(=O)[C@H]5CSC(=N5)/C(=C/C)NC(=O)[C@H]([C@@H](C)O)NC(=O)c5csc(n5)[C@]3(CC2)NC(=O)[C@H](C)NC(=O)C(=C)NC(=O)[C@H](C)NC(=O)[C@H]([C@@H](C)CC)N[C@@H]2C=Cc3c([C@H](C)O)cc(nc3[C@H]2O)C(=O)O[C@@H]4C)n1)C(N)=O [free TS, thiostrepton]",expression of genes associated with M2-like macrophages (ΔΔCt),[2],successful at downregulating genes associated with M2-like macrophages
same,expression of genes of M1-like macrophages (ΔΔCt),[2],upregulating genes of M1-like macrophages
"C/C1=C/C(=O)O[C@@H]2C[C@@H](CC[C@H](C)/C=C\CC1)O[C@@](O)([C@@H]1CSC(=O)N1)C2 [LatB, latrunculin B]",inhibition of cellular uptake of the nanotubes,[1],20%
"CN(C)c1nc(N)c(C(=O)N=C(N)N)nc1Cl.Cl [DMA, 5-(N,N-dimethyl)-amiloride hydrochloride]",inhibition of cellular uptake of the nanotubes,[1],44%
"COc1cccc2c1C(=O)c1c(O)c3c(c(O)c1C2=O)C[C@@](O)(C(=O)CO)C[C@@H]3O[C@H]1C[C@H](N)[C@H](O)[C@H](C)O1.Cl [DOX, Doxorubicin-hydrogen chloride]",viability of GL261 cells,[3],47±6%
same,histology of liver,[4],multifocal areas of hepatocyte degeneration and necrosis
same,histology of spleen,[4],"diffuse, moderate to marked depletion of the spleen white pulp associated with zonal lymphocytic apoptosis and necrosis"
same,"histology of lung, kidney and heart tissues",[4]; compared to the PBS control,no significant findings
same,body weight gained,[5]; after 28 days,6%
same,decrease in tumor signal (bioluminescence),"[5]; day 28, pump 70 μM DOX (0.2 mg DOX/Kg mouse), about 14 days, 0.25 μL/hour",80%
same,median survival time,"[5]; n=9-10 per group, NT 95 μM ssDNA-amphiphiles, DOX 70 μM",34.5 days
